According to PubChem BioAssay AID1259407 (Chemical Carcinogenesis Research Information System (CCRIS), 2018):
The source made the active and inactive calls. The rule behind the calls is not given here.

Test system: CCRIS mutagenicity, Ames/micronucleus/aberration tests
Experiment: CCRIS mutagenicity studies

c1ccccc1
mutagenic call (Test System: AMES SALMONELLA TYPHIMURIUM, Strain/Indicator: TA100, Metabolic Activation: RAT, LIVER, S-9, PHENOBARBITAL, Method: PREINCUBATION): inactive; negative
mutagenic call (Test System: AMES SALMONELLA TYPHIMURIUM, Strain/Indicator: TA100, Metabolic Activation: RAT, LIVER, S-9, PHENOBARBITAL, Method: STANDARD PLATE): inactive; negative
mutagenic call (Test System: AMES SALMONELLA TYPHIMURIUM, Strain/Indicator: TA100, Metabolic Activation: RAT, LIVER, S-9, PYRAZOLE, Method: STANDARD PLATE): inactive; negative
mutagenic call (Test System: AMES SALMONELLA TYPHIMURIUM, Strain/Indicator: TA100, Metabolic Activation: S-9, Method: STANDARD PLATE): inactive; negative
mutagenic call (Test System: AMES SALMONELLA TYPHIMURIUM, Strain/Indicator: TA102, Metabolic Activation: NONE, Method: STANDARD PLATE): inactive; negative
mutagenic call (Test System: AMES SALMONELLA TYPHIMURIUM, Strain/Indicator: TA102, Metabolic Activation: RAT, LIVER, S-9, ETHANOL, Method: STANDARD PLATE): inactive; negative
mutagenic call (Test System: AMES SALMONELLA TYPHIMURIUM, Strain/Indicator: TA102, Metabolic Activation: RAT, LIVER, S-9, PYRAZOLE, Method: STANDARD PLATE): inactive; negative
mutagenic call (Test System: AMES SALMONELLA TYPHIMURIUM, Strain/Indicator: TA102, Metabolic Activation: S-9, Method: STANDARD PLATE): inactive; negative
mutagenic call (Test System: AMES SALMONELLA TYPHIMURIUM, Strain/Indicator: TA104, Metabolic Activation: RAT, LIVER, S-9, AROCLOR 1254, Method: DESICCATOR): inactive; negative
mutagenic call (Test System: AMES SALMONELLA TYPHIMURIUM, Strain/Indicator: TA1535, Metabolic Activation: HAMSTER LIVER S-9, AROCLOR 1254 (10 OR 30%), Method: PREINCUBATION): inactive; negative
mutagenic call (Test System: AMES SALMONELLA TYPHIMURIUM, Strain/Indicator: TA1535, Metabolic Activation: NONE, Method: DESICCATOR): inactive; negative
mutagenic call (Test System: AMES SALMONELLA TYPHIMURIUM, Strain/Indicator: TA1535, Metabolic Activation: NONE, Method: PREINCUBATION): inactive; negative
mutagenic call (Test System: AMES SALMONELLA TYPHIMURIUM, Strain/Indicator: TA1535, Metabolic Activation: NONE, Method: STANDARD PLATE): inactive; negative
mutagenic call (Test System: AMES SALMONELLA TYPHIMURIUM, Strain/Indicator: TA1535, Metabolic Activation: RAT LIVER S-9, AROCLOR 1254 (10 OR 30%), Method: PREINCUBATION): inactive; negative
mutagenic call (Test System: AMES SALMONELLA TYPHIMURIUM, Strain/Indicator: TA1535, Metabolic Activation: RAT, LIVER, S-9, AROCLOR 1254, Method: DESICCATOR): active; positive
mutagenic call (Test System: AMES SALMONELLA TYPHIMURIUM, Strain/Indicator: TA1535, Metabolic Activation: RAT, LIVER, S-9, AROCLOR 1254, Method: STANDARD PLATE): inactive; negative
mutagenic call (Test System: AMES SALMONELLA TYPHIMURIUM, Strain/Indicator: TA1535, Metabolic Activation: RAT, LIVER, S-9, PYRAZOLE, Method: STANDARD PLATE): inactive; negative
mutagenic call (Test System: AMES SALMONELLA TYPHIMURIUM, Strain/Indicator: TA1537, Metabolic Activation: NONE, Method: STANDARD PLATE): inactive; negative
mutagenic call (Test System: AMES SALMONELLA TYPHIMURIUM, Strain/Indicator: TA1537, Metabolic Activation: RAT, LIVER, S-9, AROCLOR 1254, Method: STANDARD PLATE): inactive; negative
mutagenic call (Test System: AMES SALMONELLA TYPHIMURIUM, Strain/Indicator: TA1537, Metabolic Activation: RAT, LIVER, S-9, PYRAZOLE, Method: STANDARD PLATE): inactive; negative
mutagenic call (Test System: AMES SALMONELLA TYPHIMURIUM, Strain/Indicator: TA1538, Metabolic Activation: NONE, Method: STANDARD PLATE): inactive; negative
mutagenic call (Test System: AMES SALMONELLA TYPHIMURIUM, Strain/Indicator: TA1538, Metabolic Activation: RAT, LIVER, S-9, AROCLOR 1254, Method: STANDARD PLATE): inactive; negative
mutagenic call (Test System: AMES SALMONELLA TYPHIMURIUM, Strain/Indicator: TM677/8-AZAGUANINE, Metabolic Activation: NONE, Method: PREINCUBATION): inactive; negative
mutagenic call (Test System: AMES SALMONELLA TYPHIMURIUM, Strain/Indicator: TM677/8-AZAGUANINE, Metabolic Activation: RAT, LIVER, S-9, PHENOBARBITAL, Method: PREINCUBATION): inactive; negative
mutagenic call (Test System: AMES SALMONELLA TYPHIMURIUM, Strain/Indicator: TM677, Metabolic Activation: NONE, Method: STANDARD PLATE): inactive; negative
mutagenic call (Test System: AMES SALMONELLA TYPHIMURIUM, Strain/Indicator: UTH8413, Metabolic Activation: NONE, Method: STANDARD PLATE): inactive; negative
mutagenic call (Test System: AMES SALMONELLA TYPHIMURIUM, Strain/Indicator: UTH8413, Metabolic Activation: RAT, LIVER, S-9, AROCLOR, Method: STANDARD PLATE): inactive; negative
mutagenic call (Test System: AMES SALMONELLA TYPHIMURIUM, Strain/Indicator: UTH8414, Metabolic Activation: NONE, Method: STANDARD PLATE): inactive; negative
mutagenic call (Test System: AMES SALMONELLA TYPHIMURIUM, Strain/Indicator: UTH8414, Metabolic Activation: RAT, LIVER, S-9, AROCLOR, Method: STANDARD PLATE): inactive; negative
mutagenic call (Test System: CHINESE HAMSTER OVARY, Strain/Indicator: CHO-K1-BH4 (HGPRT), Metabolic Activation: NONE, Method: SUSPENSION/PLATE): inactive; negative
mutagenic call (Test System: CHINESE HAMSTER OVARY, Strain/Indicator: CHO-K1-BH4 (HGPRT), Metabolic Activation: RAT, LIVER, S-9, AROCLOR, Method: SUSPENSION/PLATE): inactive; negative
mutagenic call (Test System: CHINESE HAMSTER OVARY, Strain/Indicator: CHO/6-THIOGUANINE, Metabolic Activation: HAMSTER EMBRYO CELL-MEDIATED): inactive; negative
mutagenic call (Test System: CHINESE HAMSTER OVARY, Strain/Indicator: CHO/6-THIOGUANINE, Metabolic Activation: NONE): inactive; negative
mutagenic call (Test System: CHINESE HAMSTER OVARY, Strain/Indicator: CHO/OUABAIN, Metabolic Activation: HAMSTER EMBRYO CELL-MEDIATED): inactive; negative
mutagenic call (Test System: CHINESE HAMSTER OVARY, Strain/Indicator: CHO/OUABAIN, Metabolic Activation: NONE): inactive; negative
mutagenic call (Test System: CHINESE HAMSTER V-79, Strain/Indicator: V-79 (HGPRT)/6-THIOGUANINE, Metabolic Activation: NONE): inactive; negative
mutagenic call (Test System: CHINESE HAMSTER V-79, Strain/Indicator: V-79 (HGPRT)/6-THIOGUANINE, Metabolic Activation: RAT, LIVER, S-9, PHENOBARBITAL AND BETA-NAPHTHOFLAVONE): inactive; negative
mutagenic call (Test System: CHINESE HAMSTER V-79, Strain/Indicator: V-79/6-THIOGUANINE, Metabolic Activation: RAT, LIVER, S-9, PHENOBARBITAL AND 5,6-BENZOFLAVONE, Method: REPLATING): inactive; negative
mutagenic call (Test System: MOUSE LYMPHOMA, Strain/Indicator: L5178Y (TK+/+)/OUABAIN, Metabolic Activation: RAT LIVER S-9, AROCLOR 1254, Method: SUSPENSION/PLATE): active; positive
mutagenic call (Test System: MOUSE LYMPHOMA, Strain/Indicator: L5178Y (TK+/TK-), Metabolic Activation: NONE, Method: MICROWELL): active; positive
mutagenic call (Test System: MOUSE LYMPHOMA, Strain/Indicator: L5178Y (TK+/TK-), Metabolic Activation: NONE, Method: SUSPENSION/PLATE): inactive; negative
mutagenic call (Test System: MOUSE LYMPHOMA, Strain/Indicator: L5178Y (TK+/TK-), Metabolic Activation: RAT, LIVER, S-9, AROCLOR 1254, Method: SUSPENSION/PLATE): active; positive
mutagenic call (Test System: MOUSE LYMPHOMA, Strain/Indicator: L5178Y (TK+/TK-), Metabolic Activation: RAT, LIVER, S-9, Method: SUSPENSION/PLATE): inactive; negative
mutagenic call (Test System: MOUSE LYMPHOMA, Strain/Indicator: L5178Y (TK+/TK-), Metabolic Activation: S-9, Method: MICROWELL): active; positive
mutagenic call (Test System: MOUSE LYMPHOMA, Strain/Indicator: L5178Y(TK+/-)/TRIFLUOROTHYMIDINE, Metabolic Activation: RAT LIVER s-9, AROCLOR 1254, Method: SUSPENSION/PLATE): active; positive
mutagenic call (Test System: UDS RAT HEPATOCYTES, Strain/Indicator: THY INCORP, Metabolic Activation: NONE, Method: LIQUID SCINTILLATION COUNTING): active; positive
mutagenic call (Test System: UDS SHE CELLS, Strain/Indicator: THY INCORP, Metabolic Activation: NONE, Method: LIQUID SCINTILLATION COUNTING): inactive; negative
